Usually IC50 stands for the point on the concentration scale where inhibition reaches its midpoint.

Experimental findings from US20220041616A1, “SPIRO COMPOUND AND MEDICAL USES THEREOF” (The National Institutes of Pharmaceutical R&D Co., Ltd., priority 2018, published 2022) are described below.

The first assay has as its system HepG2 cells. The experiment in a line: In vitro inhibition of fatty acid synthesis in HepG2 cells ([14C]-acetate incorporation). Type of assay: cell-based, human. The following applies: 1 h compound, then 5 h [2-14C]-acetic acid. Here is the method:
Human liver tumor cells (HepG2 cells) with strong fatty acid synthesis ability were selected. The sample to be tested was added and incubated for 1 hour. Isotope-labeled [^14C]-sodium acetate was added to the cell culture medium and incubated for 5 hours. Then the cells were lysed, and the fatty acid components in the cell were extracted and separated. The relative content of the isotope integrated into the fatty acid was analyzed, so as to detect the inhibitory effect of the compound on fatty acid synthesis in HepG2 cells at different concentrations, and the IC50 value was calculated.
a. HepG2 cells were purchased from the American type culture collection (ATCC) resource bank. Cells were cultured in DMEM (GIBCO) containing 10% fetal bovine serum (GIBCO), penicillin (100 units/mL) and streptomycin (100 μg/mL) (GIBCO), and then incubated in a 37° C. incubator containing 5% carbon dioxide, and passaged once every 2 to 3 days.
b. On the first day, HepG2 cells were inoculated in a 24-well cell culture plate at 2×10^5 per well, and were incubated in a 37° C. incubator containing 5% carbon dioxide.
c. On the fourth day, the medium was changed to that containing the compound. The initial concentration of the compound was 3 μM or 0.3 μM, 3-fold dilution, 8 concentration gradients, and the final concentration of DMSO was 0.5% (v/v). The plate was incubated in a 37° C. incubator containing 5% carbon dioxide for 1 hour. GS-0976 was positive compound control; the reaction system with no compound but DMSO at a final concentration of 0.5% was negative control.
d. 1 μCi [2-^14C]-acetic acid was added to each well, and incubated for 5 hours in a 37° C. incubator containing 5% carbon dioxide.
e. The medium was first transferred to 15 mL centrifuge tubes. 0.5 mL of 0.1 M NaOH was added to each well of cells, and the lysed cell suspension was added to the corresponding 15 mL centrifuge tubes. 1 mL of ethanol and 0.17 mL of 50% KOH were added to each tube, and incubated in a water bath at 90° C. for 1 hour.
f. The sample were taken out and cooled to room temperature, then 5 mL petroleum ether was added to each tube, inverted several times, and centrifuged at 1000 rpm for 5 min. The upper organic phase was discarded and the aqueous phase was kept for fatty acid extraction. 1 mL of concentrated hydrochloric acid (its pH was ensured to be below 1) was added to each tube.
g. 5 mL petroleum ether was added to each tube, invert several times and centrifuged at 1000 rpm for 5 min. 4 mL petroleum ether layer was transferred to a new glass tube (18×180 mm). This step was repeated once.
h. The extracts were collected and placed in a water bath at 64° C. to evaporate for 30 min. Fatty acids were dissolved with 400 μL chloroform/n-hexane (1:1).
i. 50 μL sample were placed in iso-plate (Perkinelmer), 200 μL ULTIMA GOLD (Perkinelmer) was added to each well and incubated for 10 min at room temperature.
j. MicroBeta (Perkinelmer) was used to record the CPM scintillation signal.
The average value of the positive and negative control well and the standard deviation were calculated. IC50 was fitted by using XLFit 5.3.1.3 (2006-2011 ID Business Solutions Limited) with 4-Parameter Logistic Model or Sigmoidal Dose-Response Model:
Y=(Bottom+((Top−Bottom)/(1+((Log IC50/X)^Hillslope)))),
wherein X is the logarithm of the compound concentration, Y is CPM (count per minute); Top and Bottom are the Y values at the highest and lowest plateau of the curve; Hillslope is the Hill constant.
Molecule `COc1ccccc1C(CN1C(=O)C2(CCC(C(=O)O)C2)C(=O)c2c1sc(-c1ncco1)c2C)OC1CCOCC1` (mixture of isomers) [Compound 5y, 7′-(2-(2-methoxyphenyl)-2-((tetrahydro-2H-pyran-4-yl)oxy)ethyl)-3′-methyl-2′-(oxazol-2-yl)-4′,6′-dioxo-6′,7′-dihydro-4′H-spiro[cyclopentane-1,5′-thieno[2,3-b]pyridine]-3-carboxylic Acid] registered an IC50 of less than 50 nM.

The assay is the same for the next values; noted with them: Homo sapiens, HepG2, 1 h compound, then 5 h [2-14C]-acetic acid.
`COc1ccccc1C(CN1C(=O)C2(CCC(C(=O)O)C2)C(=O)c2c1sc(-c1ncco1)c2C)OC1CCOCC1` (mixture of isomers) [Compound 5x, 7′-(2-(2-methoxyphenyl)-2-((tetrahydro-2H-pyran-4-yl)oxy)ethyl)-3′-methyl-2′-(oxazol-2-yl)-4′,6′-dioxo-6′,7′-dihydro-4′H-spiro[cyclopentane-1,5′-thieno[2,3-b]pyridine]-3-carboxylic Acid] had an IC50 of 50 to 500 nM.
Still for that read-out and setting: the figure for `COc1ccccc1C(CN1C(=O)C2(CC(C(=O)O)C2)C(=O)c2c1sc(-c1ncco1)c2C)OC1CCOCC1` (mixture of isomers) [Compound 8, 7′-(2-(2-methoxyphenyl)-2-((tetrahydro-2H-pyran-4-yl)oxy)ethyl)-3′-methyl-2′-(oxazol-2-yl)-4′,6′-dioxo-6′,7′-dihydro-4′H-spiro[cyclobutane-1,5′-thieno[2,3-b]pyridine]-3-carboxylic Acid] is less than 50 nM; for `COc1ccccc1C(CN1C(=O)C2(CCC(C(=O)O)C2)C(=O)c2c1sc(-c1ncco1)c2C)OC1CCOCC1` (single isomer, unassigned) [Compound 5b, 7′-(2-(2-methoxyphenyl)-2-((tetrahydro-2H-pyran-4-yl)oxy)ethyl)-3′-methyl-2′-(oxazol-2-yl)-4′,6′-dioxo-6′,7′-dihydro-4′H-spiro[cyclopentane-1,5′-thieno[2,3-b]pyridine]-3-carboxylic Acid] it is less than 50 nM; for `COc1ccccc1C(CN1C(=O)C2(CC(C(=O)O)C2)C(=O)c2c1sc(-c1ncco1)c2C)OC1CCOCC1` (single isomer, unassigned) [Compound 8d, 7′-(2-(2-methoxyphenyl)-2-((tetrahydro-2H-pyran-4-yl)oxy)ethyl)-3′-methyl-2′-(oxazol-2-yl)-4′,6′-dioxo-6′,7′-dihydro-4′H-spiro[cyclobutane-1,5′-thieno[2,3-b]pyridine]-3-carboxylic Acid] it is less than 50 nM.
Same read-out and setting: the figure for `COc1ccccc1[C@H](CN1c2sc(-c3ncco3)c(C)c2C(=O)[C@]2(C[C@H](C(=O)O)C2)C1=O)OC1CCOCC1` [Compound 8c, 7′-(2-(2-methoxyphenyl)-2-((tetrahydro-2H-pyran-4-yl)oxy)ethyl)-3′-methyl-2′-(oxazol-2-yl)-4′,6′-dioxo-6′,7′-dihydro-4′H-spiro[cyclobutane-1,5′-thieno[2,3-b]pyridine]-3-carboxylic Acid] is less than 50 nM.
